The record followed here is patent publication US10021880B2, “Diarylimidazole compound and harmful organism control agent” (Nippon Soda Co., Ltd., priority 2014, dated 2018).

Structures are written as SMILES.

In one series the test system is Pseudaletia separate. Kind of series: Efficacy test against Pseudaletia separate (maize leaf dip). In kind it is in vivo. The following applies: foliar, 144 h, maize leaves soaked 30 seconds, second-instar larvae, after 6 days, 25° C., read-out: insect mortality rate against Pseudaletia separate. How it is done:
(§1) 5 parts of the compound of the present invention, 93.6 parts of dimethyl formamide and 1.4 parts of polyoxyethylene alkylaryl ether were mixed and dissolved to obtain emulsion (I) including 5% of active ingredient.
Emulsion (I) was diluted with water so that the concentration of the compound of the present invention reaches 125 ppm. Maize leaves were soaked in the diluted liquid for 30 seconds. Then the maize leaves were put on Petri dishes, followed by inoculating 5 second-instar larvae of Pseudaletia separate. The Petri dishes were placed in a temperature-controlled room with a temperature of 25° C. and humidity of 60%. Mortality was investigated after 6 days were passed, and the insect mortality rate was calculated. The test was repeated twice.

In the next series the test system is Spodoptera litura. Briefly: Efficacy test against Spodoptera litura (cabbage leaf dip). In kind it is in vivo. The following applies: foliar, 144 h, cabbage leaves soaked 30 seconds, second-instar larvae, after 6 days, 25° C., read-out: insect mortality rate against Spodoptera litura. How it is done: as §1
Emulation (I) was diluted with water so that the concentration of the compound of the present invention reaches 125 ppm. Cabbage leaves were soaked in the diluted liquid for 30 seconds. Then the cabbage leaves were put on Petri dishes, followed by inoculating 5 second-instar larvae of Spodoptera litura. The Petri dishes were placed in a temperature-controlled room with a temperature was 25° C. and humidity of 60%. Mortality was investigated after 6 days were passed, and the insect mortality rate was calculated. The test was repeated twice.

The next series has as its system Plutella xylostella. Briefly: Efficacy test against Plutella xylostella (cabbage leaf dip). In kind it is in vivo. The following applies: foliar, 72 h, cabbage leaves soaked 30 seconds, second-instar larvae, after 3 days, 25° C., read-out: mortality rate against Plutella xylostella. How it is done: as §1
Emulsion (I) was diluted with water so that the concentration of the compound of the present invention reaches 125 ppm. Cabbage leaves were soaked in the diluted liquid for 30 seconds. Then the cabbage leaves were put on Petri dishes, followed by inoculating 5 second-instar larvae of Plutella xylostella. The Petri dishes were placed in a temperature-controlled room with a temperature was 25° C. and humidity of 60%. Mortality was investigated after 3 days were passed, and the insect mortality rate was calculated. The test was repeated twice.

Series [1] deals with Aphis gossypii. Briefly: Efficacy test against Aphis gossypii (spray on cucumber seedlings). In kind it is in vivo. As to conditions: sprayed on cucumber seedlings inoculated with nymphs, 4 days after spraying, read-out: mortality rate against Aphis gossypii. The protocol:
as §1
Cucumber plants were raised in No. 3 pots and the first true leaves were inoculated with nymphs of Aphis gossypii. Emulation (I) was diluted with water so that the concentration of the compound of the present invention reaches 125 ppm, followed by spraying the diluted liquid on the cucumber seedlings. The cucumber seedlings were then placed in a temperature-controlled room with a temperature of 25° C. and humidity of 60%. Mortality was investigated after 4 days were passed from the spraying, and the insect mortality rate of Aphis gossypii was calculated. The test was repeated twice.

A further series relates to Tetranychus kanzawai. Kind of series: Efficacy test against Tetranychus kanzawai (spray on kidney bean seedlings). In kind it is in vivo. As to conditions: 240 h, sprayed on kidney bean seedlings, adult mortality 10 days after spraying, 25° C., humidity 65%, read-out: mortality rate against Tetranychus kanzawai. How it is done: as §1
Kidney bean plants were raised in No. 3 pots and the primary leaves were inoculated with 10 adult female Tetranychus kanzawai. Emulation (I) was diluted with water so that the concentration of the compound of the present invention reaches 125 ppm, followed by spraying the diluted liquid on the kidney bean seedlings. The kidney bean seedlings were then placed in a temperature-controlled room with a temperature of 25° C. and humidity of 65%. Mortality of the adult Tetranychus kanzawai was investigated after 10 days were passed from the spraying, and the insect mortality rate of Tetranychus kanzawai was calculated. The test was repeated twice.

The subject of a further series is Musca domestica. Briefly: Efficacy test against Musca domestica (treated cube sugar). As to conditions: 100 ppm on cube sugar, after 24 hours, 25° C. In kind it is in vivo. How it is done: The compound of the present invention was diluted with acetone, followed by dropping to 1 g of cube sugar so that the concentration reaches to 100 ppm. The cube sugar was placed in a plastic cup and 10 adult female Musca domestica were released therein, followed by putting the lid on the cup. The cup was kept at 25° C., the mortality was investigated after 24 hours was passed from the releasing of Musca domestica and the insect mortality rate was calculated by the following equation. The test was repeated twice. Insect mortality rate (%)=(number of dead insects/number of sample insects)×100

Another series concerns Culex pipiens. Briefly: Efficacy test against Culex pipiens (larvae in chemical solution). In kind it is in vivo. As to conditions: 2 ppm in water, after 1 day. The protocol:
as §1
Emulsion (I) was diluted with water so that the concentration of the compound of the present invention reaches 2 ppm to prepare a chemical solution for test. 20 first-instar larvae of Culex pipiens were released into 100 ml of the chemical solution for test, then the number of dead insects was calculated after 1 day was passed, and the insect mortality rate was calculated by the following equation. The test was repeated twice. Insect mortality rate (%)=(number of dead insects/number of sample insects)×100

Series [2] concerns Aphis gossypii. Briefly: Efficacy test against Aphis gossypii (root-dipping test). In kind it is in vivo. As to conditions: 8 ppm in hydroponic liquid, cucumber, nymphs, after 6 days.
Source text: as §1
Cucumber plants raised in No. 3 pots were pulled out from the pots, then the soil attached to the roots was washed with tap water, followed by hydroponic-cultivating the cucumber plants by soaking the roots in tap water. The cucumber seedlings were inoculated with nymphs of Aphis gossypii. Emulsion (I) was diluted with water to obtain a diluted liquid with a concentration of 8 ppm of the compound of the present invention. The tap water was replaced with the diluted liquid, and then the hydrophonic-cultivation was continued in a temperature-controlled room with a temperature was 25° C. and humidity of 60%.
After 6 days were passed from the hydrophonic-cultivation in the diluted liquid, mortality of Aphis gossypii was investigated and the insect mortality rate was calculated. The test was repeated twice.

As a reminder, the melting point is the temperature, or range, at which the solid turns liquid. In the case of `Cn1c(-c2ccc(C(F)(F)F)cc2)c[n+]([O-])c1-c1ccc(C(F)(F)F)cc1F`, the melting point lay in the range of 229 to 231 °C.

In general, mortality refers to the percentage killed. Regarding `CCS(=O)(=O)c1cc(C(F)(F)F)ccc1-c1ncc(-c2ccc(C(F)(F)F)cc2)n1C` [Compound 1-3, 2-(2-(ethylsulfonyl)-4-(trifluoromethyl)phenyl)-1-methyl-5-(4-(trifluoromethyl)phenyl)-1H-imidazole], the mortality at 125 ppm in the series with Pseudaletia separate, in the series on Spodoptera litura, with Plutella xylostella and with Aphis gossypii [1] was no less than 80% each time.

Consider `Cn1c(-c2ccc(C(F)(F)F)cc2)cnc1-c1ccc(C(F)(F)F)cc1F` [Compound 1-4, 2-(2-fluoro-4-(trifluoromethyl)phenyl)-1-methyl-5-(4-(trifluoromethyl)phenyl)-1H-imidazole], for which the mortality at 125 ppm with Tetranychus kanzawai was no less than 90%.

For `CCSc1cc(C(F)(F)F)ccc1-c1ncc(-c2ccc(C(F)(F)F)cc2)n1C` [Compound 1-7, 2-(2-(ethylsulfanyl)-4-(trifluoromethyl)phenyl)-1-methyl-5-(4-(trifluoromethyl)phenyl)-1H-imidazole], the mortality at 125 ppm in the series with Pseudaletia separate, in the series with Spodoptera litura and in the series with Plutella xylostella was no less than 80% each time.

In the case of `CCS(=O)(=O)c1cc(C(F)(F)F)ccc1-c1ncc(-c2ccc(OC(F)(F)F)cc2)n1C` [Compound 1-35], the “insect mortality rate against the adult female Musca domestica” value in the series with Musca domestica is 100%. Also, in the series with Culex pipiens, the “insect mortality rate against the first-instar larvae of Culex pipiens” value is 100%.

`CCS(=O)(=O)c1cnccc1-c1ncc(-c2ccc(C(F)(F)F)cc2)n1C` [Compound 3-1]: in the series with Aphis gossypii [2], the “insect mortality rate (Aphis gossypii, root-dipping test)” value was no less than 80%.
